Source: patent US10689414B2 (Agios Pharmaceuticals, Inc., priority 2013, dated 2020)

Test system: U87MG cells
Assay: Cellular assay, inhibition of 2-HG production in U87MG cells
Type: cell-based
Conditions: Homo sapiens, U-87 MG, 48 h
Protocol: Cells (HT1080 or U87MG) are grown in T125 flasks in DMEM containing 10% FBS, 1× penicillin/streptomycin and 500 ug/mL G418 (present in U87MG cells only). They are harvested by trypsin and seeded into 96 well white bottom plates at a density of 5000 cell/well in 100 ul/well in DMEM with 10% FBS. […] Cells are incubated overnight at 37° C. in 5% CO2. The next day test compounds are made up at 2× the final concentration and 100 ul are added to each cell well. The final concentration of DMSO is 0.2% and the DMSO control wells are plated in row G. The plates are then placed in the incubator for 48 hours. […] The cell plate is placed back in the incubator for another 24 hours. At 72 hours post compound addition, 10 mL/plate of Promega Cell Titer Glo reagent is thawed and mixed. The cell plate is removed from the incubator and allowed to equilibrate to room temperature. Then 100 ul of Promega Cell Titer Glo reagent is added to each well of media. The cell plate is then placed on an orbital shaker for 10 minutes and then allowed to sit at room temperature for 20 minutes. The plate is then read for luminescence with an integration time of 500 ms.

Row | IC50 [nM] | Structure (SMILES)
1 | < 100 | CS(=O)(=O)c1cccc(N(C(=O)[C@@H]2CCC(=O)N2c2cc(C#N)ccn2)C(C(=O)NC2CCC(F)(F)CC2)c2ccccc2Cl)c1 (stereo partly drawn) [Compound 95, (2S)—N-(1-(2-Chlorophenyl)-2-((4,4-difluorocyclohexyl)amino)-2-oxoethyl)-1-(4-cyanopyridin-2-yl)-N-(3-(methylsulfonyl)phenyl)-5-oxopyrrolidine-2-carboxamide]
2 | 100 to 500 | O=C(NC1CC(F)(F)C1)[C@H](c1ccccc1Cl)N(C(=O)[C@@H]1CCC(=O)N1c1cc(Cl)ccn1)c1cccc(F)c1 [Compound 33]
3 | < 100 | N#Cc1ccnc(N2C(=O)CC[C@H]2C(=O)N(c2cc(F)cc(F)c2)[C@H](C(=O)NC2CC(F)(F)C2)c2ccccc2Cl)c1 [Compound 71, (S)—N—((S)-1-(2-Chlorophenyl)-2-((3,3-difluorocyclobutyl)amino)-2-oxoethyl)-1-(4-cyanopyridin-2-yl)-N-(3,5-difluorophenyl)-5-oxopyrrolidine-2-carboxamide]
4 | < 100 | N#Cc1ccnc(N2C(=O)CNC[C@H]2C(=O)N(c2cc(F)cc(F)c2)[C@H](C(=O)NC2CC(F)(F)C2)c2ccccc2Cl)n1 [Compound 99, (S)—N—((S)-1-(2-chlorophenyl)-2-((3,3-difluorocyclobutyl)amino)-2-oxoethyl)-1-(4-cyanopyrimidin-2-yl)-N-(3,5-difluorophenyl)-6-oxopiperazine-2-carboxamide]
5 | < 100 | N#Cc1ccnc(N2C(=O)CC[C@H]2C(=O)N(c2cc(F)cc(F)c2)[C@H](C(=O)NC2CC(F)(F)C2)c2ccccc2)c1 [Compound 210, (S)-1-(4-Cyanopyridin-2-yl)-N—((S)-2-(3,3-difluorocyclobutylamino)-2-oxo-1-phenylethyl)-N-(3,5-difluorophenyl)-5-oxopyrrolidine-2-carboxamide]
6 | < 100 | N#Cc1ccnc(N2C(=O)CN(C3CC3)C[C@H]2C(=O)N(c2cc(F)cc(F)c2)[C@H](C(=O)NC2CC(F)(F)C2)c2ccccc2Cl)c1 [Compound 106, (S)—N—((S)-1-(2-chlorophenyl)-2-((3,3-difluorocyclobutyl)amino)-2-oxoethyl)-1-(4-cyanopyridin-2-yl)-4-cyclopropyl-N-(3,5-difluorophenyl)-6-oxopiperazine-2-carboxamide]
7 | < 100 | COc1cccc(N(C(=O)[C@@H]2CCC(=O)N2c2cc(C#N)ccn2)[C@H](C(=O)NC2CC(F)(F)C2)c2ccccc2Cl)c1 [Compound 129, (S)—N—((S)-1-(2C)-2-((3,3-difluorocyclobutyl)amino)-2-oxoethyl)-1-(4-cyanopyridin-2-yl)-N-(3-methoxyphenyl)-5-oxopyrrolidine-2-carboxamide]
8 | < 100 | CCOC(=O)CN1C[C@@H](C(=O)N(c2cccc(F)c2)[C@H](C(=O)NC2CC(F)(F)C2)c2ccccc2Cl)N(c2cc(C#N)ccn2)C1=O [Compound 94, Ethyl 2-((4S)-4-((1-(2-chlorophenyl)-2-((3,3-difluorocyclobutyl)amino)-2-oxoethyl)(3-fluorophenyl)carbamoyl)-3-(4-cyanopyridin-2-yl)-2-oxoimidazolidin-1-yl)acetate]
9 | < 100 | N#Cc1ccnc(N2C(=O)[C@H](O)C[C@H]2C(=O)N(c2cc(F)cc(F)c2)[C@H](C(=O)NC2CC(F)(F)C2)c2ccccc2Cl)n1 [Compound 117, (2S,4R)—N—((S)-1-(2-Chlorophenyl)-2-((3,3-difluorocyclobutyl)amino)-2-oxoethyl)-1-(4-cyanopyrimidin-2-yl)-N-(3,5-difluorophenyl)-4-hydroxy-5-oxopyrrolidine-2-carboxamide]
10 | < 100 | O=C(NC1CC(F)(F)C1)[C@H](c1ccccc1Cl)N(C(=O)[C@@H]1CCC(=O)N1c1ncccn1)c1cc(F)cc(F)c1 [Compound 70, (S)—N—((S)-1-(2-Chlorophenyl)-2-((3,3-difluorocyclobutyl)amino)-2-oxoethyl)-N-(3,5-difluoro-phenyl)-5-oxo-1-(pyrimidin-2-yl)pyrrolidine-2-carboxamide]
11 | 100 to 500 | O=C(NC1CC(F)(F)C1)C(c1c(Cl)cccc1Cl)N(C(=O)[C@@H]1CCC(=O)N1c1ncccn1)c1cccc(F)c1 (stereo partly shown) [Compound 51]
12 | < 100 | N#Cc1ccnc(N2C(=O)OCC[C@H]2C(=O)N(c2cccc(F)c2)C(C(=O)NC2CC(F)(F)C2)c2ccccc2Cl)c1 (mixture of isomers) [Compound 90, (4S)—N-(1-(2-Chlorophenyl)-2-(3,3-difluorocyclobutylamino)-2-oxoethyl)-3-(4-cyanopyridin-2-yl)-N-(3-fluorophenyl)-2-oxo-1,3-oxazinane-4-carboxamide]
13 | < 100 | N#Cc1cccnc1N1C(=O)CC[C@H]1C(=O)N(c1cccc(F)c1)[C@H](C(=O)NC1CC(F)(F)C1)c1ccccc1Cl [Compound 69, (S)—N—((S)-1-(2-Chlorophenyl)-2-((3,3-difluorocyclobutyl)amino)-2-oxoethyl)-1-(3-cyanopyri-din-2-yl)-N-(3-fluorophenyl)-5-oxopyrrolidine-2-carboxamide]
14 | < 100 | C[S@+]([O-])c1cc(F)cc(N(C(=O)[C@@H]2CCC(=O)N2c2cc(C#N)ccn2)[C@H](C(=O)NC2CC(F)(F)C2)c2ccccc2Cl)c1 [Compound 190, (S)—N—((S)-1-(2-Chlorophenyl)-2-(3,3-difluorocyclobutylamino)-2-oxoethyl)-1-(4-cyanopyridin-2-yl)-N-(3-fluoro-5-((S)-methylsulfinyl)phenyl)-5-oxopyrrolidine-2-carboxamide]
15 | < 100 | O=C(NC1CC(F)(F)C1)[C@H](c1ccccc1Cl)N(C(=O)[C@@H]1COC(=O)N1c1cscn1)c1cccc(F)c1 [Compound 72]
16 | < 100 | N#Cc1cc(F)cc(N(C(=O)[C@@H]2CCC(=O)N2c2cc(C#N)ccn2)[C@H](C(=O)NC2CC(F)(F)C2)c2ccccc2Cl)c1 [Compound 177, (S)—N—((S)-1-(2-Chlorophenyl)-2-(3,3-difluorocyclobutylamino)-2-oxoethyl)-N-(3-cyano-5-fluorophenyl)-1-(4-cyanopyridin-2-yl)-5-oxopyrrolidine-2-carboxamide]
17 | < 100 | N#Cc1ccnc(N2C(=O)CC[C@H]2C(=O)N(c2cccc(F)c2)[C@H](C(=O)NC2CC(F)(F)C2)c2ccccc2F)c1 [Compound 149, (S)-1-(4-Cyanopyridin-2-yl)-N—((S)-2-((3,3-difluorocyclobutyl)amino)-1-(2-fluorophenyl)-2-oxoethyl)-N-(3-fluorophenyl)-5-oxopyrrolidine-2-carboxamide]
18 | < 100 | O=C(NC1CCCCC1)[C@H](c1ccccc1Cl)N(C(=O)[C@@H]1CCC(=O)N1c1ncccn1)c1cccc(F)c1 [Compound 7]
19 | 100 to 500 | N#Cc1ccnc(N2C(=O)[C@H](O)C[C@H]2C(=O)N(c2cccc(F)c2)[C@@H](C(=O)NC2CCC(F)(F)CC2)c2ccccc2Cl)n1 [Compound 122, (2S,4R)—N—((R)-1-(2-Chlorophenyl)-2-((4,4-difluorocyclohexyl)amino)-2-oxoethyl)-1-(4-cyanopyrimidin-2-yl)-N-(3-fluorophenyl)-4-hydroxy-5-oxopyrrolidine-2-carboxamide]
20 | < 100 | N#Cc1ccnc(N2C(=O)CC[C@H]2C(=O)N(c2cccc(F)c2F)[C@H](C(=O)NC2CC(F)(F)C2)c2ccccc2Cl)c1 [Compound 188, (S)—N—((S)-1-(2-Chlorophenyl)-2-((3,3-difluorocyclobutyl)amino)-2-oxoethyl)-1-(4-cyanopyridin-2-yl)-N-(2,3-difluorophenyl)-5-oxopyrrolidine-2-carboxamide]
21 | < 100 | N#Cc1cc(F)cc(N(C(=O)[C@@H]2CCC(=O)N2c2cc(C#N)ccn2)[C@H](C(=O)NC2CCC(F)(F)CC2)c2ccccc2Cl)c1 [Compound 184, (S)—N—((S)-1-(2-Chlorophenyl)-2-(4,4-difluorocyclohexylamino)-2-oxoethyl)-N-(3-cyano-5-fluorophenyl)-1-(4-cyanopyridin-2-yl)-5-oxopyrrolidine-2-carboxamide]
22 | < 100 | N#Cc1ccnc(N2C(=O)[C@@H](O)C[C@H]2C(=O)N(c2cc(F)cc(F)c2)[C@H](C(=O)NC2CC(F)(F)C2)c2ccccc2Cl)c1 [Compound 171, (2S,4S)—N—((S)-1-(2-Chlorophenyl)-2-((3,3-difluorocyclobutyl)amino)-2-oxoethyl)-1-(4-cyano-pyridin-2-yl)-N-(3,5-difluorophenyl)-4-hydroxy-5-oxopyrrolidine-2-carboxamide]
23 | < 100 | N#Cc1ccnc(N2C(=O)[C@H](O)C[C@H]2C(=O)N(c2cc(F)cc(F)c2)[C@H](C(=O)NC2CCC(F)(F)CC2)c2ccccc2Cl)n1 [Compound 127, (2S,4R)—N—((S)-1-(2-Chlorophenyl)-2-(4,4-difluorocyclohexylamino)-2-oxoethyl)-1-(4-cyanopyrimidin-2-yl)-N-(3,5-difluorophenyl)-4-hydroxy-5-oxopyrrolidine-2-carboxamide]
24 | < 100 | N#Cc1ccnc(N2C(=O)CC[C@H]2C(=O)N(c2ccccc2F)[C@H](C(=O)NC2CC(F)(F)C2)c2ccccc2Cl)c1 [Compound 187, (S)—N—((S)-1-(2-Chlorophenyl)-2-((3,3-difluorocyclobutyl)amino)-2-oxoethyl)-1-(4-cyanopyridin-2-yl)-N-(2-fluorophenyl)-5-oxopyrrolidine-2-carboxamide]
25 | < 100 | N#Cc1ccnc(N2C(=O)CC[C@H]2C(=O)N(c2cccc(-c3cn[nH]c3)c2)[C@H](C(=O)NC2CC(F)(F)C2)c2ccccc2Cl)c1 (single isomer, unassigned) [Compound 200]
